Experiment: refractive index (Na D-line) (dimensionless); xn = mol fraction of the nth substance listed
Conditions: 101.3 kPa, Liquid, Standard Abbe refractometry

COCCOCCOCCOCCOC [2,5,8,11,14-pentaoxapentadecane] + CCC(C)O
refractive index
Conditions	x2 = 0	x2 = 0.1007	x2 = 0.2003	x2 = 0.3015	x2 = 0.3991	x2 = 0.5011	x2 = 0.6024	x2 = 0.6997	x2 = 0.7998	x2 = 0.9004
288.15 K	1.4345	1.43266	1.43063	1.42851	1.42627	1.42333	1.41994	1.41632	1.41171	1.40624
293.15 K	1.43238	1.43054	1.42851	1.42637	1.42412	1.42118	1.41778	1.41418	1.4096	1.40412
298.15 K	1.43027	1.42843	1.42637	1.42424	1.42197	1.41902	1.41562	1.41202	1.40743	1.40197
303.15 K	1.42815	1.42631	1.42424	1.4221	1.41983	1.41687	1.41347	1.40983	1.40522	1.39977
308.15 K	1.42603	1.4242	1.42212	1.41998	1.41768	1.41473	1.41133	1.40765	1.40302	1.39751
313.15 K	1.42394	1.42209	1.42001	1.41785	1.4155	1.41255	1.40915	1.40543	1.40077	1.39524
318.15 K	1.42183	1.42003	1.4179	1.41571	1.41339	1.41039	1.40698	1.40327	1.39857	1.393
323.15 K	1.41973	1.41794	1.4158	1.4136	1.41127	1.40823	1.40477	1.40104	1.39628	1.39067

CN1CCCC1=O [N-methylpyrrolidone] + CCC(C)O
refractive index
Conditions	x2 = 0	x2 = 0.1049	x2 = 0.2001	x2 = 0.3009	x2 = 0.4019	x2 = 0.5003	x2 = 0.5995	x2 = 0.7004	x2 = 0.7985	x2 = 0.899
288.15 K	1.47166	1.46489	1.45851	1.45151	1.44431	1.43715	1.42982	1.42227	1.41487	1.40724
293.15 K	1.46952	1.46273	1.45634	1.44937	1.44219	1.43504	1.42772	1.42016	1.41275	1.40512
298.15 K	1.46736	1.46061	1.45418	1.4473	1.44013	1.43298	1.42564	1.41806	1.41063	1.40302
303.15 K	1.4652	1.45844	1.45203	1.44515	1.43799	1.43083	1.42349	1.41587	1.40842	1.40081
308.15 K	1.46306	1.45632	1.44987	1.44301	1.43583	1.42867	1.42131	1.41372	1.40626	1.39861
313.15 K	1.46095	1.45416	1.44773	1.44083	1.43366	1.42651	1.41919	1.41155	1.40406	1.39638
318.15 K	1.45891	1.45204	1.44559	1.43868	1.43152	1.42436	1.41701	1.40934	1.40181	1.39408
323.15 K	1.4568	1.44996	1.4435	1.43654	1.42934	1.42215	1.41481	1.40711	1.39955	1.39172

Source: the NIST ThermoML archive (doi:10.1021/je400486p)
